Data as given in patent US12433953B2, “Compositions and methods related to tumor activated antibodies targeting EGFR and effector cell antigens” (Janux Therapeutics, Inc., priority 2021, dated 2025).
Read-outs that look alike come from different tables or passages of the source.

What was measured:
[1] = target: EGFR Fab binding to the EGFR antigen; assay: ELISA competitive inhibition of EGFR Fab binding to EGFR antigen
EGFR Fab = assay: ELISA binding of peptides to EGFR Fab; details: for EC50: read-out: EC50 for peptide binding to αEGFR Fab
[2] = read-out: IC50 for peptide inhibition of αEGFR Fab binding to EGFR antigen, Table 17
[3] = Table 20, peptide-8 alanine scanning mutants, read-out: IC50
[4] = Table 21, peptide-8 alanine scanning mutants, read-out: IC50

Structure (SMILES) | Fold shift in IC50 relative to Peptide-8 (IC50 Ala mutant/IC50 Peptide-8) ([1]; Table 20) | IC50 [1, 3] [µM] | IC50 [1, 4] [µM] | also measured
CC(C)C[C@H](NC(=O)[C@@H]1CSSC[C@H](NC(=O)[C@@H](N)Cc2c[nH]c3ccccc23)C(=O)N[C@@H]([C@@H](C)O)C(=O)N[C@@H](C(C)C)C(=O)N[C@@H](Cc2c[nH]c3ccccc23)C(=O)NCC(=O)N[C@@H](CC(=O)O)C(=O)N[C@@H](CCCNC(=N)N)C(=O)N[C@@H](CCC(N)=O)C(=O)N[C@@H](CCC(=O)O)C(=O)N[C@@H](C(C)C)C(=O)N[C@@H](CCCNC(=N)N)C(=O)N1)C(=O)O [Peptide-7] | – | – | – | IC50 [1, 2]: > 0.3 µM; EC50 (EGFR Fab; Table 15): > 1 µM
CC[C@H](C)[C@@H]1NC(=O)[C@H](Cc2c[nH]cn2)NC(=O)[C@H](CO)NC(=O)[C@H](CCCNC(=N)N)NC(=O)[C@@H](NC(=O)[C@@H]2CCCN2)CSSC[C@@H](C(=O)N[C@H](C(=O)O)C(C)C)NC(=O)[C@H]([C@@H](C)CC)NC(=O)[C@@H]2CCCN2C(=O)[C@H](CCCCN)NC(=O)[C@H](C)NC(=O)[C@H](C(C)C)NC(=O)[C@H](CC(=O)O)NC1=O [Peptide-8] | – | – | – | inhibiting EGFR Fab binding to the EGFR antigen (in words) ([1]; among peptides of Table 14): most effective at inhibiting EGFR Fab binding to the EGFR antigen; binding affinity for EGFR Fab (in words) (EGFR Fab; among peptides of Table 14): strongest binding affinities (lowest EC50s); EC50 (EGFR Fab; Table 15): 0.008 µM; EC50 (EGFR Fab; Table 24, peptide-8 optimization): 0.7 µM
CSCC[C@@H]1NC(=O)[C@H](Cc2c[nH]c3ccccc23)NC(=O)[C@H](Cc2ccc(O)cc2)NC(=O)[C@H](Cc2c[nH]cn2)NC(=O)[C@H](C(C)C)NC(=O)[C@@H](NC(=O)[C@@H](NC(=O)[C@@H](N)CO)[C@@H](C)O)CSSC[C@@H](C(=O)N[C@H](C(=O)O)C(C)C)NC(=O)[C@H](CO)NC(=O)[C@H](CCCNC(=N)N)NC(=O)[C@H](CC(C)C)NC(=O)[C@H](CCC(N)=O)NC1=O [Peptide-9] | – | – | – | IC50 [1, 2]: > 0.3 µM; EC50 (EGFR Fab; Table 15): > 1 µM
CSCC[C@@H]1NC(=O)[C@H](C(C)C)NC(=O)[C@H](Cc2c[nH]c3ccccc23)NC(=O)[C@H](Cc2c[nH]cn2)NC(=O)[C@H](C)NC(=O)[C@@H](NC(=O)CNC(=O)CN)CSSC[C@@H](C(=O)N[C@@H](CCC(N)=O)C(=O)O)NC(=O)[C@H](Cc2c[nH]c3ccccc23)NC(=O)[C@H](CO)NC(=O)[C@H](CC(C)C)NC(=O)[C@H](CCCNC(=N)N)NC1=O [Peptide-10] | – | – | – | IC50 [1, 2]: > 0.3 µM; EC50 (EGFR Fab; Table 15): > 1 µM
CC[C@H](C)[C@@H]1NC(=O)[C@H](Cc2c[nH]cn2)NC(=O)[C@H](CO)NC(=O)[C@H](C)NC(=O)[C@@H](NC(=O)[C@@H]2CCCN2)CSSC[C@@H](C(=O)N[C@H](C(=O)O)C(C)C)NC(=O)[C@H]([C@@H](C)CC)NC(=O)[C@@H]2CCCN2C(=O)[C@H](CCCCN)NC(=O)[C@H](C)NC(=O)[C@H](C(C)C)NC(=O)[C@H](CC(=O)O)NC1=O [Peptide-18] | 1.4 | 5.6 | – | –
CC[C@H](C)[C@@H]1NC(=O)[C@H](C)NC(=O)[C@H](CO)NC(=O)[C@H](CCCNC(=N)N)NC(=O)[C@@H](NC(=O)[C@@H]2CCCN2)CSSC[C@@H](C(=O)N[C@H](C(=O)O)C(C)C)NC(=O)[C@H]([C@@H](C)CC)NC(=O)[C@@H]2CCCN2C(=O)[C@H](CCCCN)NC(=O)[C@H](C)NC(=O)[C@H](C(C)C)NC(=O)[C@H](CC(=O)O)NC1=O [Peptide-20] | 2.8 | 11 | – | –
CC[C@H](C)[C@@H]1NC(=O)[C@@H]2CCCN2C(=O)[C@H](CCCCN)NC(=O)[C@H](C)NC(=O)[C@H](C(C)C)NC(=O)[C@H](CC(=O)O)NC(=O)[C@H](C)NC(=O)[C@H](Cc2c[nH]cn2)NC(=O)[C@H](CO)NC(=O)[C@H](CCCNC(=N)N)NC(=O)[C@@H](NC(=O)[C@@H]2CCCN2)CSSC[C@@H](C(=O)N[C@H](C(=O)O)C(C)C)NC1=O [Peptide-21] | 0.5 | 1.95 | – | –
CC[C@H](C)[C@@H]1NC(=O)[C@H](Cc2c[nH]cn2)NC(=O)[C@H](CO)NC(=O)[C@H](CCCNC(=N)N)NC(=O)[C@@H](NC(=O)[C@@H]2CCCN2)CSSC[C@@H](C(=O)N[C@H](C(=O)O)C(C)C)NC(=O)[C@H]([C@@H](C)CC)NC(=O)[C@@H]2CCCN2C(=O)[C@H](C)NC(=O)[C@H](C)NC(=O)[C@H](C(C)C)NC(=O)[C@H](CC(=O)O)NC1=O [Peptide-24] | – | – | > 100 | –

Second part, led by results:

Fold shift in IC50 relative to Peptide-8 (IC50 Ala mutant/IC50 Peptide-8) ([1]; Table 20) | IC50 [1, 3] [µM] | IC50 [1, 4] [µM] | Structure (SMILES) | also measured
4.1 | 16 | – | CC[C@H](C)[C@@H]1NC(=O)[C@H](Cc2c[nH]cn2)NC(=O)[C@H](CO)NC(=O)[C@H](CCCNC(=N)N)NC(=O)[C@@H](NC(=O)[C@H](C)N)CSSC[C@@H](C(=O)N[C@H](C(=O)O)C(C)C)NC(=O)[C@H]([C@@H](C)CC)NC(=O)[C@@H]2CCCN2C(=O)[C@H](CCCCN)NC(=O)[C@H](C)NC(=O)[C@H](C(C)C)NC(=O)[C@H](CC(=O)O)NC1=O [Peptide-17] | –
24 | 93 | – | CC[C@H](C)[C@@H]1NC(=O)[C@H](Cc2c[nH]cn2)NC(=O)[C@H](C)NC(=O)[C@H](CCCNC(=N)N)NC(=O)[C@@H](NC(=O)[C@@H]2CCCN2)CSSC[C@@H](C(=O)N[C@H](C(=O)O)C(C)C)NC(=O)[C@H]([C@@H](C)CC)NC(=O)[C@@H]2CCCN2C(=O)[C@H](CCCCN)NC(=O)[C@H](C)NC(=O)[C@H](C(C)C)NC(=O)[C@H](CC(=O)O)NC1=O [Peptide-19] | –
– | > 100 | – | CC[C@H](C)[C@@H]1NC(=O)[C@H](Cc2c[nH]cn2)NC(=O)[C@H](CO)NC(=O)[C@H](CCCNC(=N)N)NC(=O)[C@@H](NC(=O)[C@@H]2CCCN2)CSSC[C@@H](C(=O)N[C@H](C(=O)O)C(C)C)NC(=O)[C@H]([C@@H](C)CC)NC(=O)[C@@H]2CCCN2C(=O)[C@H](CCCCN)NC(=O)[C@H](C)NC(=O)[C@H](C(C)C)NC(=O)[C@H](C)NC1=O [Peptide-22] | –
– | – | 3.8 | CC[C@H](C)[C@@H]1NC(=O)[C@H](Cc2c[nH]cn2)NC(=O)[C@H](CO)NC(=O)[C@H](CCCNC(=N)N)NC(=O)[C@@H](NC(=O)[C@@H]2CCCN2)CSSC[C@@H](C(=O)N[C@H](C(=O)O)C(C)C)NC(=O)[C@H]([C@@H](C)CC)NC(=O)[C@@H]2CCCN2C(=O)[C@H](CCCCN)NC(=O)[C@H](C)NC(=O)[C@H](C)NC(=O)[C@H](CC(=O)O)NC1=O [Peptide-23] | Fold shift in IC50 relative to Peptide-8 (IC50 Ala mutant/IC50 Peptide-8) ([1]; Table 21): 2.7
– | – | > 100 | CC[C@H](C)[C@@H]1NC(=O)[C@H](C)NC(=O)[C@H](CCCCN)NC(=O)[C@H](C)NC(=O)[C@H](C(C)C)NC(=O)[C@H](CC(=O)O)NC(=O)[C@H]([C@@H](C)CC)NC(=O)[C@H](Cc2c[nH]cn2)NC(=O)[C@H](CO)NC(=O)[C@H](CCCNC(=N)N)NC(=O)[C@@H](NC(=O)[C@@H]2CCCN2)CSSC[C@@H](C(=O)N[C@H](C(=O)O)C(C)C)NC1=O [Peptide-25] | –
– | – | > 100 | CC[C@H](C)[C@@H]1NC(=O)[C@H](Cc2c[nH]cn2)NC(=O)[C@H](CO)NC(=O)[C@H](CCCNC(=N)N)NC(=O)[C@@H](NC(=O)[C@@H]2CCCN2)CSSC[C@@H](C(=O)N[C@H](C(=O)O)C(C)C)NC(=O)[C@H](C)NC(=O)[C@@H]2CCCN2C(=O)[C@H](CCCCN)NC(=O)[C@H](C)NC(=O)[C@H](C(C)C)NC(=O)[C@H](CC(=O)O)NC1=O [Peptide-26] | –
– | – | 3.1 | CC[C@H](C)[C@@H]1NC(=O)[C@H](Cc2c[nH]cn2)NC(=O)[C@H](CO)NC(=O)[C@H](CCCNC(=N)N)NC(=O)[C@@H](NC(=O)[C@@H]2CCCN2)CSSC[C@@H](C(=O)N[C@@H](C)C(=O)O)NC(=O)[C@H]([C@@H](C)CC)NC(=O)[C@@H]2CCCN2C(=O)[C@H](CCCCN)NC(=O)[C@H](C)NC(=O)[C@H](C(C)C)NC(=O)[C@H](CC(=O)O)NC1=O [Peptide-27] | Fold shift in IC50 relative to Peptide-8 (IC50 Ala mutant/IC50 Peptide-8) ([1]; Table 21): 2.2
